# Key:
# [1] = tested on: Swiss albino mice; experiment: Plasma triglyceride and total cholesterol lowering activity in Swiss albino mice; type: in vivo, mouse; details: results after 6 days
# Protocol: c) Plasma triglyceride and total cholesterol lowering activity in Swiss albino mice Male Swiss albino mice (SAM) were obtained from NIN and housed in DRF animal house. All these animals are maintained under 12 hour light and dark cycle at 25±1° C. Animals are given standard laboratory chow (NIN, Hyderabad, India) and water, ad libitum. SAM of 20-25 g body weight range and Guinea pigs of 500-700 g body weight range are used (Oliver, P., Plancke, M. O., Marzin, D., Clavey, V., Sauzieres, J and Fruchart, J. C. Effects of fenofibrate, gemfibrozil and nicotinic acid on plasma lipoprotein levels in normal and hyperlipidemic mice. Atherosclerosis. 1988. 70: 107-114).
# The test compounds can be administered orally to Swiss albino mice at 0.3 to 30 mg/kg/day dose for 6 days. Control mice are treated with vehicle (0.25% Carboxymethylcellulose; dose 10 ml/kg). The test compounds are administered orally to Guinea pigs at 0.3 to 30 mg/kg/day dose for 6 days. Control animals are treated with vehicle (0.25% Carboxymethylcellulose; dose 5 ml/kg). The blood samples can bc collected in fed state 1 hour after drug administration on 0 and 6 day of treatment. The blood can be collected from the retro-orbital sinus through heparinised capillary in EDTA containing tubes. After centrifugation, plasma sample was separated for triglyceride (Wieland, O. Methods of Enzymatic analysis. Bergermeyer, H. O., Ed., 1963. 211-214; Trinder, P. Ann. Clin. Biochem. 1969. 6: 24-27). Measurement of plasma triglyceride is done using commercial kits (Dr. Reddy's Diagnostic Division, Hyderabad, India).
# (§1) 1. Percent reduction in Blood sugar/triglycerides/total cholesterol will be calculated according to the formula:
# (§2) [formula] • OC=Zero day control group value • OT=Zero day treated group value • TC=Test day control group value • TT=Test day treated group value
# [2] = tested on: C57BL/KsJ-db/db mice; experiment: Efficacy in genetic models: blood sugar and triglyceride lowering in db/db mice; type: in vivo, mouse; details: 3 mg/kg oral, results after 6 days
# Source text: a) Efficacy in Genetic Models Mutation in colonies of laboratory animals and different sensitivities to dietary regimens has made the development of animal models with non-insulin dependent diabetes and hyperlipidemia associated with obesity and insulin resistance possible. Genetic models such as db/db and ob/ob (Diabetes, (1982) 31(1): 1-6) mice and zucker fa/fa rats have been developed by the various laboratories for understanding the pathophysiology of disease and testing the efficacy of new antidiabetic compounds (Diabetes, (1983) 32: 830-838; Annu. Rep. Sankyo Res. Lab. (1994). 46: 1-57). The homozygous animals, C57 BL/KsJ-db/db mice developed by Jackson Laboratory, US, are obese, hyperglycemic, hyperinsulinemic and insulin resistant (J. Clin. Invest., (1990) 85: 962-967), whereas heterozygous are lean and normoglycemic. In db/db model, mouse progressively develops insulinopenia with age, a feature commonly observed in late stages of human type II diabetes when blood sugar levels are insufficiently controlled. The state of pancreas and its course vary according to the models. Since this model resembles that of type II diabetes mellitus, the compounds of the present invention will be tested for blood sugar and triglycerides lowering activities.
# Male C57BL/KsJ-db/db mice of 8 to 14 weeks age, having body weight range of 35 to 60 grams, bred at Dr. Reddy's Research Foundation (DRF) animal house, were used in the experiment. The mice are provided with standard feed (National Institute of Nutrition (NIN), Hyderabad, India) and acidified water, ad libitum. The animals having more than 350 mg/dl blood sugar will be used for testing. The number of animals in each group will be 4.
# Test compounds are suspended on 0.25% carboxymethyl cellulose and administered to test group at a dose of 0.1 mg to 30 mg/kg through oral gavage daily for 6 days. The control group receives vehicle (dose 10 ml/kg). On 6th day the blood samples will be collected one hour after administration of test compounds/vehicle for assessing the biological activity.
# The random blood sugar and triglyceride levels can be measured by collecting blood (100 μl) through orbital sinus, using heparinised capillary in tubes containing EDTA which was centrifuged to obtain plasma. The plasma glucose and triglyceride levels can be measured spectrometrically, by glucose oxidase and glycerol-3-PO4 oxidase/peroxidase enzyme (Dr. Reddy's Lab. Diagnostic Division Kits, Hyderabad, India) methods respectively.
# The blood sugar and triglycerides lowering activities of the test compound are calculated according to the formula.
# as §1, §2
# [3] = tested on: cholesterol fed Syrian Hamsters; experiment: Body weight reducing effect in cholesterol fed hamsters; type: in vivo, hamster; details: 3 mg/kg oral
# Protocol: d) Body weight reducing effect in cholesterol fed hamsters: Male Syrian Hamsters are procured from NIN, Hyderabad, India. Animals are housed at DRF animal house under 12 hour light and dark cycle at 25±1° C. with free access to food and water. Animals are maintained with 1% cholesterol containing standard laboratory chow (NIN) from the day of treatment.
# The test compounds can be administered orally at 1 to 30 mg/kg/day dose for 15 days. Control group animals are treated with vehicle (Mill Q water, dose 10 ml/kg/day). Body weights are measured on every 3rd day.
# as §1, §2
molecule,measurement,setting,value
CCOC(Cc1ccc(NCCCc2ccc(N(C(=O)OC(C)(C)C)S(C)(=O)=O)cc2)cc1)C(=O)O (centres unmarked) [Example 30],Triglyceride Lowering (%),[1]; 3 mg/kg oral,41%
"CCOC(Cc1ccc(NC(=O)OCCCc2ccc(OS(C)(=O)=O)cc2)cc1)C(=O)O (centres unmarked) [Example 16, 2-Ethoxy-3-[4-{3-(4-methanesulfonyloxyphenyl)propyloxycarbonylamino}phenyl]propionic acid]",Reduction in Blood Glucose Level (%),[2],15%
same,Triglyceride Lowering (%),[2],39%
same,Reduction in Body weight (%),[3],19%
same,Reduction in Total Cholesterol (%),[3],63%
same,Reduction in Triglyceride (%),[3],77%
"CCOC(Cc1ccc(NCCCc2ccc(OS(=O)(=O)c3ccc(C)cc3)cc2)cc1)C(=O)O (centres unmarked) [Example 19, 2-ethoxy-3-[4-{3-(4-(toluene-4-sulfonyloxy)phenyl)propylamino}phenyl]propionate]",Triglyceride Lowering (%),[1]; 1 mg/kg oral,39%
2-Ethoxy-3-[4-(4-methanesulfonyloxybenzylamino)phenyl]propionic acid arginine salt [Example 38],Triglyceride Lowering (%),[1]; 1 mg/kg oral,41%
